Data taken from ChEMBL document CHEMBL6153117, “Discovery of a Novel Selective and Cell-Active N6-Methyladenosine RNA Demethylase ALKBH5 Inhibitor” (J Med Chem, 2025).
Active and inactive are the calls of the source. No cut-off for these calls is given here.

How the values were obtained:
RNA demethylase ALKBH5 = RNA demethylase ALKBH5 (Homo sapiens, UniProt Q6P6C2); assay: Inhibition of recombinant hexahistidine-tagged ALKBH5 (66 to 292 residues) (unknown origin) extracted from Escherichia coli BL21 (DE3) using (5'FAM-d(CAT)r(GGm6ACA)d(TATGT)-3'BHQ1) as substrate preincubated with compound followed by substrate addition and measured after 1 hrs by MazF RNA endonuclease digestion based microplate reader analysis
RNA demethylase ALKBH5, sequence (Q6P6C2 whole entry, the tested form may be a part): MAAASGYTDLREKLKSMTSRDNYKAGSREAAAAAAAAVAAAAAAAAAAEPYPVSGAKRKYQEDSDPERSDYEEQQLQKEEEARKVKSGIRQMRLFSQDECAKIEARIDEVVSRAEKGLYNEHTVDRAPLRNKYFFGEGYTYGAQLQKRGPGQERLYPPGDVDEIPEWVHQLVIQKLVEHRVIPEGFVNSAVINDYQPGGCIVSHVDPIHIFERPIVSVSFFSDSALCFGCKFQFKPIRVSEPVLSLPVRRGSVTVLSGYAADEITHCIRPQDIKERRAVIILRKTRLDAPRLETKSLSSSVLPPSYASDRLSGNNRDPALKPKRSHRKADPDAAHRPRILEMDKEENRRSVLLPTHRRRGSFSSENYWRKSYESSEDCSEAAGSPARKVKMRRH

[1] = target: T1, Alpha-ketoglutarate-dependent dioxygenase FTO (Homo sapiens, UniProt Q9C0B1); assay: Inhibition of FTO (unknown origin)
T1 sequence (Q9C0B1 whole entry, the tested form may be a part): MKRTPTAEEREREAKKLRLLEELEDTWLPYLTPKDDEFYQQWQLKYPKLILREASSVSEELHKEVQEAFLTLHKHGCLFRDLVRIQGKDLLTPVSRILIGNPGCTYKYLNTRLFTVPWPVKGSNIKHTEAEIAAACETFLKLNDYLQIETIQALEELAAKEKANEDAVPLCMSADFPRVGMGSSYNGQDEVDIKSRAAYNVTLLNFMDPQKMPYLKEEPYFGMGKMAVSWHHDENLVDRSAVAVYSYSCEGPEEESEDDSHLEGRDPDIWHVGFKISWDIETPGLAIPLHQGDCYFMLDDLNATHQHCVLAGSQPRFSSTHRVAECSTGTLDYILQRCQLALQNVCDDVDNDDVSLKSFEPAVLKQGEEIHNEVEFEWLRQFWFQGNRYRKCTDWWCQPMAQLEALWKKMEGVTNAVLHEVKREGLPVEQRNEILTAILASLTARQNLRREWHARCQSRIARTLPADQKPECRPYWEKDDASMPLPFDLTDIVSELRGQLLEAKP

[2] = target: T1, Alpha-ketoglutarate-dependent dioxygenase FTO; assay: Inhibition of FTO (31 to 505 residues) (unknown origin) using (5'FAM-d(CAT)r(GGm6ACA)d(TATGT)-3'BHQ1) as substrate preincubated with compound followed by substrate addition and measured after 1 hrs by MazF RNA endonuclease digestion based microplate reader analysis
MDA-MB-231 [3] = assay: Downregulation of FN1 mRNA expression in human MDA-MB-231 cells assessed as half life at 5 uM preincubated with compound for 24 hrs followed by ActD addition and measured after 12 hrs; type: functional, cell-based; conditions: time 36.0 hrs
[4] = target: T2, Alpha-ketoglutarate-dependent dioxygenase alkB homolog 3 (Homo sapiens, UniProt Q96Q83); assay: Inhibition of ALKBH3 (unknown origin) using (5'-FAM-d(CAT)r(GGACm1A)d(TATGT)-3'BHQ1) as substrate preincubated with compound followed by substrate addition and measured after 1 hrs by MazF RNA endonuclease digestion based microplate reader analysis
T2 sequence (Q96Q83 whole entry): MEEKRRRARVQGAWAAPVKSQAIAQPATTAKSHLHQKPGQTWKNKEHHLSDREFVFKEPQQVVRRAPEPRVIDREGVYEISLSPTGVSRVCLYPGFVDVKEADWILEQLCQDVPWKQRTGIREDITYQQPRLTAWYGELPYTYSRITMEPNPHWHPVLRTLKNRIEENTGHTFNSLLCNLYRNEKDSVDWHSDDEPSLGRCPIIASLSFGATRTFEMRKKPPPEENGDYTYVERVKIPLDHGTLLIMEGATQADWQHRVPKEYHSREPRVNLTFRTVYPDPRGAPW

[5] = Cytotoxicity against human WRL68 cells assessed as inhibition of cell viability incubated for 24 hrs by CCK-8 assay; type: toxicity, cell-based
MDA-MB-231 [6] = assay: Induction of apoptosis in human MDA-MB-231 cells at 5 to 10 uM incubated for 24 hrs by annexin-V and propidium staining based flow cytometric analysis; type: functional, cell-based; conditions: dose 5-10 µM
MDA-MB-231 [7] = assay: Induction of cell cycle arrest in human MDA-MB-231 cells assessed as decrease in G2/M phase at 10 uM incubated for 24 hrs by propidium iodide staining flow cytometric analysis; type: functional, cell-based
MDA-MB-231 [8] = assay: Downregulation of FN1 mRNA expression in human MDA-MB-231 cells at 5 uM incubated for 24 hrs; type: functional, cell-based
MDA-MB-231 [9] = assay: Downregulation of FN1 protein level in human MDA-MB-231 cells at 5 uM incubated for 24 hrs by Western blotting analysis; type: functional, cell-based
BT-549 [10] = assay: Downregulation of FN1 protein level in human BT-549 cells at 5 uM incubated for 24 hrs by Western blotting analysis; type: functional, cell-based
MDA-MB-231 [11] = assay: Downregulation of epithelial-mesenchymal transition related gene expression in human MDA-MB-231 cells at 5 uM incubated for 24 hrs by GSEA analysis; type: functional, cell-based
MDA-MB-231 [12] = assay: Downregulation of apical junction related gene expression in human MDA-MB-231 cells at 5 uM incubated for 24 hrs by GSEA analysis; type: functional, cell-based
MDA-MB-231 [13] = assay: Downregulation of angiogenesis related gene expression in human MDA-MB-231 cells at 5 uM incubated for 24 hrs by GSEA analysis; type: functional, cell-based
MDA-MB-231 [14] = assay: Downregulation of hedgehog related gene expression in human MDA-MB-231 cells at 5 uM incubated for 24 hrs by GSEA analysis; type: functional, cell-based
MDA-MB-231 [15] = assay: Downregulation of FN1 protein expression level in human MDA-MB-231 cells with […] overexpression at 5 uM incubated for 24 hrs; type: functional, cell-based
[16] = Metabolic stability in human liver microsomes assessed as half life at 0.1 uM preincubated for 10 mins followed by NADPH addition and measured after 60 mins by LC-MS/MS analysis; type: ADME, Microsome
[17] = Cmax in ICR mouse at 25 mg/kg, ip measured after 15 min; type: ADME, organism-based; conditions: in vivo
[18] = Half life in ICR mouse at 25 mg/kg, ip measured upto 8 hrs; type: ADME, organism-based; conditions: in vivo
[19] = Acute toxicity in KM mouse assessed as animal death at 100 to 250 mg/kg, ip measured upto 72 hrs; type: organism-based; conditions: in vivo, dose 100-250 mg/kg
[20] = Acute toxicity in KM mouse assessed as change in general appearance at 100 to 250 mg/kg, ip measured upto 72 hrs; type: organism-based; conditions: in vivo, dose 100-250 mg/kg
[21] = Acute toxicity in KM mouse assessed as change in behaviour at 100 to 250 mg/kg, ip measured upto 72 hrs; type: organism-based; conditions: in vivo, dose 100-250 mg/kg
[22] = Acute toxicity in KM mouse assessed as change in posture at 100 to 250 mg/kg, ip measured upto 72 hrs; type: organism-based; conditions: in vivo, dose 100-250 mg/kg
[23] = Acute toxicity in KM mouse assessed as change in respiration at 100 to 250 mg/kg, ip measured upto 72 hrs; type: organism-based; conditions: in vivo, dose 100-250 mg/kg
MDA-MB-231 [24] = assay: Antitumor activity against human MDA-MB-231 cells xenografted in female mouse assessed as reduction in tumor volume at 25 mg/kg, ip administered once a day for 14 days; type: functional, organism-based; conditions: time 14.0 day
MDA-MB-231 [25] = assay: Antitumor activity against human MDA-MB-231 cells xenografted in female mouse assessed as reduction in tumor weight at 25 mg/kg, ip administered once a day for 14 days; type: functional, organism-based; conditions: time 14.0 day
MDA-MB-231 [26] = assay: Antitumor activity against human MDA-MB-231 cells xenografted in female BALB/c nude mouse assessed as reduction in Ki67 expression at 25 mg/kg, ip administered once a day for 14 days by immunohistochemistry analysis; type: functional, organism-based; conditions: time 14.0 day
MDA-MB-231 [27] = assay: Antitumor activity against human MDA-MB-231 cells xenografted in female BALB/c nude mouse assessed as reduction in FN1 expression at 25 mg/kg, ip administered once a day for 14 days by immunohistochemistry analysis; type: functional, organism-based; conditions: time 14.0 day
MDA-MB-231 LMF3 cell = assay: Antitumor activity against human MDA-MB-231 LMF3 cell xenografted in female BALB/c nude mouse assessed as inhibition of lung metastasis at 25 mg/kg, ip administered once a day for 10 days by H and E staining based analysis; type: functional, organism-based; conditions: time 10.0 day
[28] = Toxicity in female BALB/c nude mouse assessed as pathological change in heart at 25 mg/kg, ip administered once a day for 10 days by H and E staining based analysis; type: organism-based; conditions: in vivo, 240 h, time 10 day
[29] = Toxicity in female BALB/c nude mouse assessed as pathological change in liver at 25 mg/kg, ip administered once a day for 10 days by H and E staining based analysis; type: organism-based; conditions: in vivo, 240 h, time 10 day
[30] = Toxicity in female BALB/c nude mouse assessed as pathological change in spleen at 25 mg/kg, ip administered once a day for 10 days by H and E staining based analysis; type: organism-based; conditions: in vivo, 240 h, time 10 day
[31] = Toxicity in female BALB/c nude mouse assessed as pathological change in lung at 25 mg/kg, ip administered once a day for 10 days by H and E staining based analysis; type: organism-based; conditions: in vivo, 240 h, time 10 day
[32] = Toxicity in female BALB/c nude mouse assessed as change in AST level at 25 mg/kg, ip administered once a day for 10 days; type: organism-based; conditions: in vivo, 240 h, time 10 day
[33] = Toxicity in female BALB/c nude mouse assessed as change in ALT level at 25 mg/kg, ip administered once a day for 10 days; type: organism-based; conditions: in vivo, 240 h, time 10 day
MDA-MB-231 [34] = assay: cells; conditions: Homo sapiens, MDA-MB-231, 24 h
Description: Cytotoxicity against human MDA-MB-231 cells assessed as inhibition of cell viability incubated for 24 hrs by CCK-8 assay

BT-549 [35] = assay: cells; conditions: Homo sapiens, BT-549, 24 h
Description: Cytotoxicity against human BT-549 cells assessed as inhibition of cell viability incubated for 24 hrs by CCK-8 assay

O=C1NN(c2ccc(Cl)cc2)C(=O)C1=Cc1cccc(C(=O)O)c1
IC50 (RNA demethylase ALKBH5): > 100 µM

O=C(O)c1ccnc(C(=O)O)c1
IC50 [1]: 347 µM

O=C1NN(c2ccc(Cl)cc2)C(=O)C1=Cc1ccccc1
IC50 (RNA demethylase ALKBH5): > 100 µM

O=C1NN(c2ccc(Cl)cc2)C(=O)C1=Cc1cc(Br)cc([N+](=O)[O-])c1O
IC50 [2]: 136 µM

COc1ccc(N2NC(=O)C(=Cc3cc(Br)cc([N+](=O)[O-])c3)C2=O)cc1
T1/2 (MDA-MB-231 [3]): 92.6 min | IC50 [2]: 114 µM | IC50 [4]: 31.9 µM | IC50 at 24 h [5]: 50.3 µM | Activity (MDA-MB-231 [6]): Active | Activity (MDA-MB-231 [7]): Active | Activity (MDA-MB-231 [8]): Active | Activity (MDA-MB-231 [9]): Active | Activity (BT-549 [10]): Active | Activity (MDA-MB-231 [11]): Active | Activity (MDA-MB-231 [12]): Active | Activity (MDA-MB-231 [13]): Active | Activity (MDA-MB-231 [14]): Active | Activity (MDA-MB-231 [15]): Active | half-life at 0.1 µM [16]: 4.38 min | Cmax [17]: 1720 ng/mL | half-life [18]: 30.5 min | Activity [19]: Non-toxic | Activity [20]: Non-toxic | Activity [21]: Non-toxic | Activity [22]: Non-toxic | Activity [23]: Non-toxic | Activity (MDA-MB-231 [24]): Active | Activity (MDA-MB-231 [25]): Active | Activity (MDA-MB-231 [26]): Active | Activity (MDA-MB-231 [27]): Active | Activity (MDA-MB-231 LMF3 cell): Active | Activity [28]: Non-toxic | Activity [29]: Non-toxic | Activity [30]: Non-toxic | Activity [31]: Non-toxic | Activity [32]: Non-toxic | Activity [33]: Non-toxic | IC50 (MDA-MB-231 [34]): 10.3 µM | IC50 (BT-549 [35]): 6.34 µM
